Tests used:
[1] = tested on: Mus musculus; assay: Antinociceptive activity in Mus musculus Swiss albino (mouse) assessed as increase in reaction (paw licking and jumping) latency to thermal stimulus at 10 mg/kg, ip administered 30 min before experimental session by hot plate test; type: functional; conditions: route intraperitoneal
[2] = organism: Mus musculus; assay: animal or person; conditions: Swiss albino, ip, read-out: INH
Description: Antinociceptive activity against formalin-induced pain in Mus musculus Swiss albino (mouse) assessed as inhibition of licking during first phase (0 to 5 min) at 10 mg/kg, ip administered 30 min before experimental session

[3] = tested on: Mus musculus; assay: Antinociceptive activity in Mus musculus Swiss albino (mouse) assessed as prolongation of reaction latency to mechanical stimuli at 10 mg/kg, ip administered 30 min before experimental session by tail-clip test; type: functional; conditions: route intraperitoneal
[4] = organism: Mus musculus; assay: animal or person; conditions: Swiss albino, ip, read-out: INH; remark: listed apart in the source
Description: Antinociceptive activity against formalin-induced pain in Mus musculus Swiss albino (mouse) assessed as inhibition of licking during second phase (15 to 30 min) at 10 mg/kg, ip administered 30 min before experimental session

[5] = tested on: Mus musculus; assay: Toxicity in Mus musculus Swiss albino (mouse) assessed as mortality at 100 mg/kg, ip; type: organism-based; parameters: dose 100 mg/kg, route intraperitoneal; conditions: in vivo
[6] = tested on: Mus musculus; assay: Antinociceptive activity in Mus musculus Swiss albino (mouse) assessed as prolongation of reaction latency to mechanical stimuli at 100 mg/kg, ip administered 30 min before experimental session by tail-clip test; type: functional; conditions: route intraperitoneal
[7] = tested on: Mus musculus; assay: Antinociceptive activity against formalin-induced pain in Mus musculus Swiss albino (mouse) assessed as inhibition of licking during second phase (15 to 30 min) at 100 mg/kg, ip administered 30 min before experimental session; type: functional; conditions: route intraperitoneal
[8] = tested on: Mus musculus; assay: Toxicity in Mus musculus Swiss albino (mouse) assessed as horizontal locomotor activity at 100 mg/kg, ip; type: organism-based; parameters: dose 100 mg/kg, route intraperitoneal; conditions: in vivo
[9] = tested on: Mus musculus; assay: Toxicity in Mus musculus Swiss albino (mouse) assessed as vertical locomotor activity at 100 mg/kg, ip; type: organism-based; parameters: dose 100 mg/kg, route intraperitoneal; conditions: in vivo
[10] = tested on: Mus musculus; assay: Antinociceptive activity against formalin-induced pain in Mus musculus Swiss albino (mouse) assessed as inhibition of licking during first phase (0 to 5 min) at 100 mg/kg, ip administered 30 min before experimental session; type: functional; conditions: route intraperitoneal
[11] = tested on: Mus musculus; assay: Antinociceptive activity in Mus musculus Swiss albino (mouse) assessed as increase in reaction (paw licking and jumping) latency to thermal stimulus at 100 mg/kg, ip administered 30 min before experimental session by hot plate test; type: functional; conditions: route intraperitoneal

CN1CC[C@]23c4c5ccc(O)c4O[C@H]2[C@@H](O)C=C[C@H]3[C@H]1C5 [MORPHINE]
Activity [1]: 92.5% | inhibition in vivo at 10 mg/kg [2]: 100% | MPE [3]: 88.1% | inhibition in vivo at 10 mg/kg [4]: 100%

Cc1ccc(C2CC(c3cccs3)=NN2C(=O)CSc2nnc(CCc3ccc(O)cc3)n2N)cc1 (stereo unspecified)
Activity [5]: Non-toxic | MPE [6]: 53.5% | inhibition in vivo at 100 mg/kg [7]: 42.5% | Activity [8]: Non-toxic | Activity [9]: Non-toxic | inhibition in vivo at 100 mg/kg [10]: 35.4% | Activity [11]: 50.3%

CN(C)c1ccc(C2CC(c3cccs3)=NN2C(=O)CSc2nnc(CCc3ccc(O)cc3)n2N)cc1 (stereo unspecified)
Activity [5]: Non-toxic | MPE [6]: 36.5% | inhibition in vivo at 100 mg/kg [7]: 38.9% | Activity [8]: Non-toxic | Activity [9]: Non-toxic | inhibition in vivo at 100 mg/kg [10]: 31.3% | Activity [11]: 38.5%

Nn1c(CCc2ccc(O)cc2)nnc1SCC(=O)N1N=C(c2cccs2)CC1c1ccc(Cl)cc1 (stereo unspecified)
Activity [5]: Non-toxic | MPE [6]: 75.3% | inhibition in vivo at 100 mg/kg [7]: 72.1% | Activity [8]: Non-toxic | Activity [9]: Non-toxic | inhibition in vivo at 100 mg/kg [10]: 68.7% | Activity [11]: 81.6%

Nn1c(CCc2ccc(O)cc2)nnc1SCC(=O)N1N=C(c2cccs2)CC1c1ccc(F)cc1 (stereo unspecified)
Activity [5]: Non-toxic | MPE [6]: 85% | inhibition in vivo at 100 mg/kg [7]: 78.3% | Activity [8]: Non-toxic | Activity [9]: Non-toxic | inhibition in vivo at 100 mg/kg [10]: 73.7% | Activity [11]: 89%

Nn1c(CCc2ccc(O)cc2)nnc1SCC(=O)N1N=C(c2cccs2)CC1c1ccccc1 (stereo unspecified)
Activity [5]: Non-toxic | MPE [6]: 80.2% | inhibition in vivo at 100 mg/kg [7]: 79.2% | Activity [8]: Non-toxic | Activity [9]: Non-toxic | inhibition in vivo at 100 mg/kg [10]: 66.6% | Activity [11]: 79.4%

Nn1c(CCc2ccc(O)cc2)nnc1SCC(=O)N1N=C(c2cccs2)CC1c1ccc2c(c1)OCO2 (stereo unspecified)
Activity [5]: Non-toxic | MPE [6]: 36.2% | inhibition in vivo at 100 mg/kg [7]: 37.3% | Activity [8]: Non-toxic | Activity [9]: Non-toxic | inhibition in vivo at 100 mg/kg [10]: 32% | Activity [11]: 45.1%

Reference: ChEMBL document CHEMBL3046596, “Antinociceptive activities of some triazole and pyrazoline moieties-bearing compounds” (Med Chem Res, 2012)
